Results published in patent US20110306636A1, “OXAZOLE PYRIDINE DERIVATIVES USEFUL AS S1P1 RECEPTOR AGONISTS” (Merck Serono SA, priority 2009, published 2011).
pEC50: −log10 of the molar value. Structures can show the parent of a compound that is named as a salt. Where two headings read alike, the source gives them in different places.

Key:
[1] = molecular target: T1, S1P3 (Homo sapiens, UniProt Q99500); assay: 35S-GTPγS binding assay, S1P3 membranes; assay type: biochemical; details: membranes from CHO cells expressing S1P3; read-out: S1P3/GTPG EC50
Procedure: (§1) Membranes Preparation: Membranes were prepared from CHO cells expressing S1P1 or S1P3 for use in ligand and 35S-GTPγS binding studies. Cells were suspended in 50 mM TRIS, pH 7.4, 2 mM EDTA, 250 mM Sucrose (buffer A) and 1× Complete protease inhibitor cocktail (Roche), and disrupted at 4° C. by N2 decompression using a cell disruption bomb (Parr Instrument). Following centrifugation at 1000 RPM for 10 min at 4° C., the supernatant was diluted (2×) in buffer A and centrifuged again at 19000 RPM for 75 min at 4° C. The pellet was then suspended in 10 mM HEPES, pH 7.4, 1 mM EDTA, 250 mM Sucrose (Buffer B), and 1× Complete EDTA-free protease inhibitor cocktail and homogenized using a potter. Membranes were flash frozen in liquid N2 and stored at −80° C.
(§2) Measurements of 35S-GTPγS Binding: Membranes (1 to 10 μg protein) prepared as described above, were incubated in 96-well Scintiplates (PerkinElmer) with test compounds diluted in DMSO, in 140 μl of 20 mM HEPES, pH 7.4, 10 mM MgCl2, 2 μg/well Saponin, 0.2% fatty acid free BSA (Assay buffer), 125 mM NaCl and 1.5 μM GDP. The assay was initiated with the addition of 60 μl of 1.5 nM [35S]-GTPγS (1100 Ci/mmol; GE Healthcare) in assay buffer. After 60 min incubation at 30° C. on a shaker, plates were centrifuged for 10 min at 2000 RPM. Supernatant was discarded and membrane bound radioactivity was measured on a PerkinElmer 1450 MicroBeta counter. Triplicate samples were averaged and expressed as % response relative to S1P activation in absence of compound (n=2).

[2] = molecular target: T2, S1P1 (Homo sapiens, UniProt P21453); assay: Receptor binding assay, [33P]sphingosine 1-phosphate competition, S1P1
Procedure, shortened: (§3)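 SPA competition binding on CHO-cell membranes with 30 pM (S1P1) or 15 pM (S1P3) [33P]S1P in 50 mM HEPES pH 7.5, 5 mM MgCl2, 100 mM NaCl, 0.4% fatty acid-free BSA, 60 min at RT. Percent inhibition normalised to total binding and to non-specific binding (1000-fold unlabelled S1P), triplicates averaged.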

[3] = molecular target: T3, human S1P1 Receptor fused to the green fluorescent protein (EGFP) (Homo sapiens, UniProt P21453); assay: Internalization of S1P1 in S1P1-U2OS cells by cell imaging analysis; assay type: cell-based; details: 1 hour incubation, 384-well
T3 construct: host or cells: U2OS (human bone osteosarcoma epithelial cells), CMV promoter, geneticin selection
Procedure, shortened: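 Human U2OS osteosarcoma cells stably expressed human S1P1-EGFP. After 2 h serum starvation in 0.1% fatty-acid-free BSA medium, cells were treated with compounds for 1 h at 37 °C. Cells were then fixed and Hoechst-stained, and internalization was imaged as spots (receptor) per nucleus.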

[4] = molecular target: T2, S1P1; assay: 35S-GTPγS binding assay, S1P1 membranes; assay type: biochemical; details: membranes from CHO cells expressing S1P1; read-out: S1P1/GTPG EC50
Procedure: as §1, §2
The “potency” or the “activity” of the compounds is determined by the EC50 values as evaluated in the above described 35S-GTPγS binding assay.

[5] = molecular target: T1, S1P3; assay: Receptor binding assay, [33P]sphingosine 1-phosphate competition, S1P3
Procedure, shortened: as §3

[6] = 96 well-plate, read-out: S1P1 binding IC50 (M) (96 well-plate)
[7] = 96 well-plate, read-out: S1P3 binding IC50 (M) (96 well-plate)
[8] = 384 well-plate, read-out: S1P1 binding IC50 (M) (384 well-plate)
[9] = 384 well-plate, read-out: S1P3 binding IC50 (M) (384 well-plate)

T2 sequence (P21453 whole entry, species assumed): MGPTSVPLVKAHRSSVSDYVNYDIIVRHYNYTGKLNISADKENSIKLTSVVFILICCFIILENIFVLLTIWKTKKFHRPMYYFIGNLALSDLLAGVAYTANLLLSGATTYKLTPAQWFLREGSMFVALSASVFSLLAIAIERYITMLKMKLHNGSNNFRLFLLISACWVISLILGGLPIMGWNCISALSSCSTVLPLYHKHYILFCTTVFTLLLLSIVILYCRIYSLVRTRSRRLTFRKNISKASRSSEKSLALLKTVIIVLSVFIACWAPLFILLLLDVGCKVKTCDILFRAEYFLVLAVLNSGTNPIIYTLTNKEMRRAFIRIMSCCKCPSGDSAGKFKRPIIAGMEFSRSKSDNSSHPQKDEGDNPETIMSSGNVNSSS
T3 sequence (P21453 with tags, fused parts or gaps): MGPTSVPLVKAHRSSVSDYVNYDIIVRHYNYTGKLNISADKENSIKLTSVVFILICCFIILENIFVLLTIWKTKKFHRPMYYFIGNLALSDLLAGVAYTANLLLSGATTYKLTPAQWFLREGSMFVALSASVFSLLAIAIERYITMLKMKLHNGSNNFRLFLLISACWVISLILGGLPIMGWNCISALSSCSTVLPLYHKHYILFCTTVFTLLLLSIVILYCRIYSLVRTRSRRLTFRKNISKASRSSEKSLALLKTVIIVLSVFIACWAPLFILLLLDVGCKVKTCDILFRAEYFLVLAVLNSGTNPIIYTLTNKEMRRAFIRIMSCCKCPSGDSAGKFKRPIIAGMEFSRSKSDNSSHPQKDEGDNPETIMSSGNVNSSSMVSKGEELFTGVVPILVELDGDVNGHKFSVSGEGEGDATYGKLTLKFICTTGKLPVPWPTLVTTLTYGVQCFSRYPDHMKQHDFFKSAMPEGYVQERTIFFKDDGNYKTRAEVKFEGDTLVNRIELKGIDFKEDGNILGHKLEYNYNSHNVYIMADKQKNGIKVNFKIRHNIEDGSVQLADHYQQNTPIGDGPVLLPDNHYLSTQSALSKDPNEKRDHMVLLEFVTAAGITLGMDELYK
T1 sequence (Q99500 whole entry, species assumed): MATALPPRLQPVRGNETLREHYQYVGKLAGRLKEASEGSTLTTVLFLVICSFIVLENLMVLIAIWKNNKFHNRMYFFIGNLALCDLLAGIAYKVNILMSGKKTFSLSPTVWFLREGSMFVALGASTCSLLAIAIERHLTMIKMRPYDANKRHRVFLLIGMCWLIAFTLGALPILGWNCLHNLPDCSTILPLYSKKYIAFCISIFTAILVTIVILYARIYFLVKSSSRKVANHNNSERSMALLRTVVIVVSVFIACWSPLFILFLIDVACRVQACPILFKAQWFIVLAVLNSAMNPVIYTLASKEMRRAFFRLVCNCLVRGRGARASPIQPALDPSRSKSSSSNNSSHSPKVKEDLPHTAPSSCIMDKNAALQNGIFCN

SMILES | pEC50 [1] | IC50 [2, 6] [M] | pEC50 [3] | pEC50 [4] | IC50 [5, 7] [M] | IC50 [2, 8] [M] | melting point [°C] | IC50 [5, 9] [M]
COCc1cc(-c2nc(-c3ccnc(N)c3)no2)ccc1-c1ccccc1C [Example 15, 4-{5-[2-(methoxymethyl)-2′-methylbiphenyl-4-yl]-1,2,4-oxadiazol-3-yl}pyridin-2-amine, hydrochloride salt] | 6.38 | 1.04e-08 | 8.22 | 8.45 |  |  |  | 
COCc1cc(-c2nc(-c3cnc(N)c(Cl)c3)no2)ccc1-c1ccccc1C [Example 14, 3-chloro-5-{5-[2-(methoxymethyl)-2′-methylbiphenyl-4-yl]-1,2,4-oxadiazol-3-yl}pyridin-2-amine] | 5.84 | 1.89e-08 | 7.35 | 8.23 | 1.65e-05 |  |  | 
COCc1cc(-c2nc(-c3ccc(NCCC(=O)O)nc3)no2)ccc1-c1ccccc1C [Example 2, N-(5-{5-[2-(methoxymethyl)-2′-methylbiphenyl-4-yl]-1,2,4-oxadiazol-3-yl}pyridin-2-yl)-beta-alanine, hydrochloride salt] | 5.72 | 4.83e-09 |  | 7.68 |  |  |  | 
COCc1cc(-c2nc(-c3cnc(N)c(C)c3)no2)ccc1-c1ccccc1Cl [Example 76, 5-{5-[2′-chloro-2-(methoxymethyl)biphenyl-4-yl]-1,2,4-oxadiazol-3-yl}-3-methylpyridin-2-amine] |  |  | 7.43 |  |  | 2.16e-08 | 143 to 145 | 
COCc1cc(-c2nc(-c3cnc(N)c(Cl)c3)no2)ccc1-c1ccccc1Cl [Example 47, 3-chloro-5-{5-[2′-chloro-2-(methoxymethyl)biphenyl-4-yl]-1,2,4-oxadiazol-3-yl}pyridin-2-amine] |  | 6.02e-09 | 7.57 |  | 2e-05 |  | 182 to 184 | 
COCc1cc(-c2nc(-c3cnc(N)c(C)c3)no2)ccc1-c1ccccc1F [Example 79, 5-{5-[2′-fluoro-2-(methoxymethyl)biphenyl-4-yl]-1,2,4-oxadiazol-3-yl}-3-methylpyridin-2-amine] |  |  | 7.23 |  |  | 2.15e-08 | 162 to 164 | 
COCc1cc(-c2nc(-c3ccnc(NCC(=O)O)c3)no2)ccc1-c1ccccc1C [Example 11, N-(4-{5-[2-(methoxymethyl)-2′-methylbiphenyl-4-yl]-1,2,4-oxadiazol-3-yl}pyridin-2-yl)glycine, hydrochloride salt] |  |  | 6.61 | 7.65 |  | 6.42e-08 |  | 2.97e-06
CC1CCCCN1c1ccc(-c2nc(-c3ccc(N)nc3)no2)cc1C(F)(F)F (centres unmarked) [Example 20, 5-{5-[4-(2-methylpiperidin-1-yl)-3-(trifluoromethyl)phenyl]-1,2,4-oxadiazol-3-yl}pyridin-2-amine] |  | 1.03e-08 |  | 7.83 |  |  |  | 
COCc1cc(-c2nc(-c3ccc(N)nc3)no2)ccc1N1CCCCC1C (centres unmarked) [Example 9, 5-{5-[3-(methoxymethyl)-4-(2-methylpiperidin-1-yl)phenyl]-1,2,4-oxadiazol-3-yl}pyridin-2-amine] | 5.58 | 4.29e-09 |  | 8.75 |  |  |  | 
COCc1cc(-c2nc(-c3cnc(NCCC(=O)O)c(Cl)c3)no2)ccc1-c1ccccc1C [Example 37, N-(3-chloro-5-{5-[2-(methoxymethyl)-2′-methylbiphenyl-4-yl]-1,2,4-oxadiazol-3-yl}pyridin-2-yl)-beta-alanine, hydrochloride salt] | 5.68 | 1.07e-09 | 7.70 | 8.63 | 2.86e-06 | 1.06e-08 |  | 1.5e-05
CCOc1cc(-c2nc(-c3cnc(N)c(C)c3)no2)ccc1-c1ccccc1C(F)(F)F [Example 77, 5-{5-[2-ethoxy-2′-(trifluoromethyl)biphenyl-4-yl]-1,2,4-oxadiazol-3-yl}-3-methylpyridin-2-amine] |  |  | 7.13 |  |  | 1.49e-08 | 163 to 165 | 
COCc1cc(-c2nc(-c3ccnc(NCCC(=O)O)c3)no2)ccc1-c1ccccc1C [Example 7, N-(4-{5-[2-(methoxymethyl)-2′-methylbiphenyl-4-yl]-1,2,4-oxadiazol-3-yl}pyridin-2-yl)-beta-alanine, hydrochloride salt] | 6.93 | 9.09e-09 |  | 8.29 |  |  |  | 
COCc1cc(-c2nc(-c3cnc(N)nc3)no2)ccc1-c1ccccc1C [Example 17, 5-{5-[2-(methoxymethyl)-2′-methylbiphenyl-4-yl]-1,2,4-oxadiazol-3-yl}pyrimidin-2-amine] |  |  | 6.82 | 6.82 |  | 2.92e-08 |  | 
COCc1cc(-c2nc(-c3ccc(O)nc3)no2)ccc1N1CCCCC1C (centres unmarked) [Example 22, 5-{5-[3-(methoxymethyl)-4-(2-methylpiperidin-1-yl)phenyl]-1,2,4-oxadiazol-3-yl}pyridin-2-ol] | 6.82 | 1.3e-09 |  | 8.28 |  |  |  | 
COCc1cc(-c2nc(-c3ccc(O)nc3)no2)ccc1-c1ccccc1C [Example 21, 5-{5-[2-(methoxymethyl)-2′-methylbiphenyl-4-yl]-1,2,4-oxadiazol-3-yl}pyridin-2-ol] | 6.37 | 4.76e-08 |  | 8.40 |  |  |  | 
COCc1cc(-c2nc(-c3ccc(N)nc3)no2)ccc1-c1ccccc1C [Example 4, 5-{5-[2-(methoxymethyl)-2′-methylbiphenyl-4-yl]-1,2,4-oxadiazol-3-yl}pyridin-2-amine, hydrochloride salt] | 5.57 | 1.75e-09 | 7.49 | 8.39 | 6.07e-06 | 3.2e-08 |  | 7.85e-06
COCc1cc(-c2nc(-c3ccc(NCCO)nc3)no2)ccc1-c1ccccc1C [Example 28, 2-[(5-{5-[2-(methoxymethyl)-2′-methylbiphenyl-4-yl]-1,2,4-oxadiazol-3-yl}pyridin-2-yl)amino]ethanol] |  | 4.54e-09 |  | 8.28 |  |  |  | 
COCc1cc(-c2nc(-c3cnc(N)c(C)c3)no2)ccc1-c1ccccc1C [Example 18, 5-{5-[2-(methoxymethyl)-2′-methylbiphenyl-4-yl]-1,2,4-oxadiazol-3-yl}-3-methylpyridin-2-amine, hydrochloride salt] |  | 4.33e-09 | 7.31 | 8.31 | 2.21e-05 | 1.52e-08 |  | 
COCc1cc(-c2nc(-c3ccc(N)nc3)no2)ccc1-c1ccccc1Cl [Example 32, 5-{5-[2′-chloro-2-(methoxymethyl)biphenyl-4-yl]-1,2,4-oxadiazol-3-yl}pyridin-2-amine] |  | 1.39e-09 | 7.41 | 8.53 | 9.4e-06 | 2.12e-08 |  | 
CCC1CCCCN1c1ccc(-c2nc(-c3ccc(N)nc3)no2)cc1COC (centres unmarked) [Example 27, 5-{5-[4-(2-ethylpiperidin-1-yl)-3-(methoxymethyl)phenyl]-1,2,4-oxadiazol-3-yl}pyridin-2-amine] | 5.78 | 5.7e-09 |  | 7.87 |  |  |  | 
CCc1ccccc1-c1ccc(-c2nc(-c3ccc(N)nc3)no2)cc1COC [Example 12, 5-{5-[2′-ethyl-2-(methoxymethyl)biphenyl-4-yl]-1,2,4-oxadiazol-3-yl}pyridin-2-amine, hydrochloride salt] |  | 8.84e-09 |  | 8.79 |  |  |  | 
